Source: patent US9988378B2, “1 H-pyrazole and 4,5-disubstituted thiazole inhibitors of SYK” (Hoffmann-La Roche Inc., priority 2012, dated 2018)

Columns and labels:
RAMOS = assay: RAMOS_V2_IC50; assay type: cell-based; conditions: Homo sapiens
human whole blood = assay: IC50: human whole blood; assay type: cell-based
[1] = molecular target: T1, recombinant human SYK360-635 (Homo sapiens, UniProt P43405); assay: SYK kinase assay, 33P ATP filtration (ENZYME_FILTRATION_IC50); assay type: biochemical; conditions: SYK aa 360-635 0.5 nM, ATP 20 μM, peptide 5 μM, 30° C. 15 min
T1 construct: truncated construct of Spleen Tyrosine Kinase aa 360-635; made in house
Protocol: Determination of IC50 of Spleen Tyrosine Kinase (SYK) Inhibition:
SYK kinase assay is a standard kinase assay adapted to a 96 well plate format. This assay is performed in 96-well format for IC50 determination with […] which represented 10 half log dilutions and a 40 μL reaction volume. The assay measures the incorporation of radiolabeled ^33P ATP into an N-terminally biotinylated peptide substrate, derived from naturally occurring phosphoacceptor consensus sequence (Biotin-11aa DY*E). Phosphorylated products were detected upon termination of reactions with EDTA and the addition of Streptavidin coated beads. Representative results are in Table II above.
Assay plates: 96-well MultiScreen 0.65 um filter plates (Millipore Cat. No.: MADVNOB10) Streptavidin coated beads: Streptavidin Sepharose™, suspension 5.0 mL, in 50 mM EDTA/PBS diluted (1:100), (Amersham, Cat. No.: 17-5113-01)
Compounds: 10 mM in 100% dimethylsulfoxide (DMSO), final conc.: compound 0.003-100 uM in 10% DMSO
Enzyme: SYK RPA purified, truncated construct of Spleen Tyrosine Kinase aa 360-635, stock solution 1 mg/mL, MW: 31.2 KDa, final conc.:0.0005 μM.
Peptide 1: biotinylated peptide is derived from a naturally occurring phosphor-acceptor consensus sequence (Biotin-EPEGDYEEVLE), special order from QCB, stock solution 20 mM, final conc.: 5.0 μM.
ATP: Adenosine-5′-triphosphate 20 mM, (ROCHE Cat. No.: 93202720), final concentration: 20 μM
Buffer: HEPES: 2-Hydroxyethyl piperazine-2-ethanesulfonic acid (Sigma, Cat. No.: H-3375) final concentration: 50 mM HEPES pH7.5
BSA: Bovine Serum Albumin Fraction V, fatty acid free (Roche Diagnostics GmbH, Cat. No. 9100221) diluted to a final concentration of 0.1%
EDTA: EDTA stock solution 500 mM, (GIBCO, Cat. No.: 15575-038) final concentration: 0.1 mM
DTT: 1,4-Dithiothreitol (Roche Diagnostics GmbH, Cat. No.: 197777), final conc.: 1 mM MgCl2×6H2O: MERCK, Cat. No.: 105833.1000, final concentration: 10 mM
Assay Dilution Buffer (ADB): 50 mM HEPES, 0.1 mM EGTA, 0.1 mM Na Vanadate, 0.1 mM β-glycerophosphate, 10 mM MgCl2, 1 mM DTT, 0.1% BSA, pH 7.5
Bead wash buffer: 10 g/L PBS (Phosphate buffered saline) with 2M NaCl+1% phosphoric acid.
In 40 μL volume, 26 μL of ADB diluted, purified recombinant human SYK360-635 [0.5 nM] was mixed with 4 μL of 10× concentrations of the test compounds, [usually 100 μM-0.003 μM] in [10%] DMSO and the mixture was incubated for 10 min at RT.
The kinase reaction was initiated by the addition of 10 μL 4× substrate cocktail containing the DYE peptide substrate [0 or 5 μM], ATP [20 μM] and ^33PγATP [2 μCi/rxn]. After incubation at 30° C. for 15 min, the reaction was terminated by the transfer of 25 μL pf the reaction sample to a 96 well 0.65 μm Millipore MADVNOB membrane/plate containing 200 μL 5 mM EDTA and 20% Streptavidine coated beads in PBS.
The unbound radionucleotides were washed under vacuum with 3×250 μL 2M NaCl; 2×250 μL 2M NaCl+1% phosphoric acid; 1×250 μL H2O. After the last wash membrane/plates were transferred to an adaptor plate, heat dried for 15 min at 60° C., and 50 μL scintillation cocktail was added to each well and 4 h later the amount of radioactivity was counted in a top counter.
The percent inhibition was calculated based on the uninhibited enzyme rate: % Inhibition=100/(1+(IC50/Inhibitor conc)^n)
The IC50 was calculated using a non-linear curve fit with XLfit software (ID Business Solution Ltd., Guilford, Surrey, UK).

Row | Structure (SMILES) | IC50 (RAMOS) | IC50 (human whole blood) | IC50 [1]
1 | CC(C)(C)NC(=O)c1c[nH]nc1-c1nc2ccccc2s1 [Compound I-8, 3-(benzo[d]thiazol-2-yl)-N-tert-butyl-1H-pyrazole-4-carboxamide] | 0.146 µM | 46.7 µM | 0.067 µM
2 | CCOC(=O)c1c[nH]nc1-c1nc(-c2ccccc2)cs1 [Compound I-13, ethyl 3-(4-phenylthiazol-2-yl)-1H-pyrazole-4-carboxylate] | > 34.1 µM | > 50 µM | > 10 µM
3 | CC(C)(C)NC(=O)c1c[nH]nc1-c1nc(-c2ccccc2)cs1 [Compound I-16, N-tert-butyl-3-(4-phenylthiazol-2-yl)-1H-pyrazole-4-carboxamide] | 12.2 µM | > 50 µM | 2.41 µM
4 | CC(C)NC(=O)c1c[nH]nc1-c1nc(-c2ccccc2)cs1 [Compound I-17, N-isopropyl-3-(4-phenylthiazol-2-yl)-1H-pyrazole-4-carboxamide] | 3.54 µM | > 50 µM | 0.761 µM
5 | O=C(NC1CCOCC1)c1c[nH]nc1-c1nc(-c2ccccc2)cs1 [Compound I-21, 3-(4-phenylthiazol-2-yl)-N-(tetrahydro-2H-pyran-4-yl)-1H-pyrazole-4-carboxamide] | 19.1 µM | > 50 µM | 0.209 µM
6 | CC(C)(C)C(=O)Nc1c[nH]nc1-c1nc2ccccc2[nH]1 [Compound I-31, N-[3-(1H-Benzoimidazol-2-yl)-1H-pyrazol-4-yl]-2,2-dimethyl-propionamide] | 0.35 µM | 2.6 µM | 0.0214 µM
7 | O=C(Nc1c[nH]nc1-c1nc2ccccc2[nH]1)C1CCCC1 [Compound I-32, Cyclopentanecarboxylic acid [3-(1H-benzoimidazol-2-yl)-1H-pyrazol-4-yl]-amide] | 0.615 µM | 5.27 µM | 0.0389 µM
8 | CC(=O)OCC(C)(C)C(=O)Nc1c[nH]nc1-c1nc2ccccc2[nH]1 [Compound I-34, Acetic acid 2-[3-(1H-benzoimidazol-2-yl)-1H-pyrazol-4-ylcarbamoyl]-2-methyl-propyl ester] | 6.57 µM | 4.17 µM | 0.278 µM
9 | CC(C)(CO)C(=O)Nc1c[nH]nc1-c1nc2ccccc2[nH]1 [Compound I-35, N-[3-(1H-Benzoimidazol-2-yl)-1H-pyrazol-4-yl]-3-hydroxy-2,2-dimethyl-propionamide] | 0.92 µM | 1.92 µM | 0.0549 µM

Continued, values first:

Row | IC50 (RAMOS) | IC50 (human whole blood) | IC50 [1] | Structure (SMILES)
10 | 4.07 µM | 13.1 µM | 1.69 µM | C[C@@H](CO)NC(=O)c1c[nH]nc1-c1nc2ccccc2s1 [Compound I-12, (S)-3-(benzo[d]thiazol-2-yl)-N-(1-hydroxypropan-2-yl)-1H-pyrazole-4-carboxamide]
11 | > 34.1 µM | > 50 µM | 6.12 µM | CC(C)(C)NC(=O)c1c[nH]nc1-c1nc2c(s1)CCC2 [Compound I-18, N-tert-butyl-3-(5,6-dihydro-4H-cyclopenta[d]thiazol-2-yl)-1H-pyrazole-4-carboxamide]
12 | 1.52 µM | 10.4 µM | 0.0466 µM | Cc1ccc2[nH]c(-c3ncsc3C(=O)NC(C)(C)C)nc2c1 [Compound I-29, 4-(5-Methyl-1H-benzoimidazol-2-yl)-thiazole-5-carboxylic acid tert-butylamide]
13 | 1.02 µM | 2.29 µM | 0.06 µM | CC(C)C(=O)Nc1c[nH]nc1-c1nc2ccccc2[nH]1 [Compound I-30, N-[3-(1H-Benzoimidazol-2-yl)-1H-pyrazoll-4-yl]-isobutyramide]
14 | 3.08 µM | 2.5 µM | 0.105 µM | O=C(Nc1c[nH]nc1-c1nc2ccccc2[nH]1)C1CCOCC1 [Compound I-33, Tetrahydro-pyran-4-carboxylic acid [3-(1H-benzoimidazol-2-yl)-1H-pyrazol-4-yl]-amide]
